“Also recorded” adds a separate entry of the source. Where a SMILES comes first, the peptide text is derived from it. Bridges are numbered along the chain shown (N, C = ends). [ ]: non-standard residue; d: D form. The star is where a group is joined. S5 = C=CCCC[C@](C)(N)C(=O)O; Nle = CCCC[C@H](N)C(=O)O; Cbz = O=C(OCc1ccccc1)*; CH2F = FC*

The subject of assay [1] is MCL-1ΔNΔC, BCL-2ΔC, BCL-XLΔC, BCL-wΔC and BFL-1/A1ΔC. Briefly: FPA selectivity across panel of anti-apoptotic proteins. The assay is classed as binding. The following applies: FPA against anti-apoptotic panel. The procedure: (§1) Binding assays were performed as previously described (Pitter et al., Methods Enzymol 446, 387 (2008). Briefly, FITC-SAHB (50 nM) was added to serial dilutions of FPLC-purified recombinant protein in binding buffer (50 mM Tris, 100 mM NaCl, pH 8.0). For competition assays, serial dilutions of acetylated MCL-1 SAHBs were mixed with FITC-BAK SAHB (25 nM), followed by addition of MCL-1ΔNΔC (100 nM) diluted in binding buffer (50 mM Tris, 100 mM NaCl, pH 8.0). Multiwell plates were incubated in the dark at room temperature until equilibrium was reached and fluorescence polarization (mP units) was measured by microplate reader (SpectraMax, Molecular Devices). For direct binding experiments, dissociation constants (KD) were calculated by nonlinear regression analysis of dose-response curves using Prism software (Graphpad). For competition experiments, Ki values were determined by nonlinear regression analysis of dose-response curves using a one-site competition model.
Compounds that bound MCL-1 with high affinity were analyzed for MCL-1 selectivity by measuring SAHB affinities for recombinant BCL-XLΔC, BCL-WΔC and BFL-1/A1ΔC (FIG. 8B). Recombinant carboxy-terminal deleted anti-apoptotic proteins were expressed using the pGEX-4T vector, and purified as described for rMCL-1. The purified proteins were incubated with FITC-SAHBs, and binding affinities were analyzed by fluorescence polarization assay as described above. […] Optionally, design and optimization of tailored SAHB compounds for anti-apoptotic targeting also employed computational modeling.
After the experiments set forth above, further members of the library of stabilized alpha-helices of BCL-2 domains (SAHBs) modeled after the BH3 domains of BCL-2 family proteins were generated in order to identify potent and selective inhibitors of MCL-1. The native alpha-helical structure of BH3 domains was reinforced by incorporating non-natural amino acids containing olefin tethers at the (i, i+4) positions of the non-interacting face, followed by ruthenium catalyzed olefin metathesis to yield a panel of stapled BH3 domains (FIG. 7). Fluorescence polarization assays (FPA) were performed to measure the binding affinity of fluorescently labeled SAHBs for recombinant human MCL-1ΔNΔC (amino acids 172-320), a deletion construct that contains the BH3-binding pocket and affords enhanced expression, purity, and stability. […] To identify MCL-1-selective SAHBs, we first screened for recombinant BCL-XLΔC binding, which eliminated PUMA, BID, BIM, BOK, BAX, and BAK SAHBs and then for recombinant BFL1/A1ΔC binding, which eliminated NOXA SAHB.

The target of the next assay is recombinant BCL-XLΔC (Homo sapiens, UniProt Q07817). Briefly: Fluorescence polarization direct binding of FITC-SAHBs to BCL-XLΔC. The following applies: FPA. The procedure: as §1
Chain of recombinant BCL-XLΔC (Q07817 1-209, stated change not applied): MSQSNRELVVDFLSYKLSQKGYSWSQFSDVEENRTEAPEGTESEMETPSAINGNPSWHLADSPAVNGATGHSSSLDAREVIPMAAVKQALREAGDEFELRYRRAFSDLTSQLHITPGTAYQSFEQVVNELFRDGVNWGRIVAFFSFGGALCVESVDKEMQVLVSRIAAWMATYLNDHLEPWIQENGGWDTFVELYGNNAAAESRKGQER
Recombinant carboxy-terminal deleted anti-apoptotic proteins were expressed using the pGEX-4T vector, and purified as described for rMCL-1. The purified proteins were incubated with FITC-SAHBs, and binding affinities were analyzed by fluorescence polarization assay as described above. […] Optionally, design and optimization of tailored SAHB compounds for anti-apoptotic targeting also employed computational modeling.
In general terms: Polarisation of emitted light reports the rotation of a fluorescent probe.

Assay [2] has as its system Jurkat T-cell leukemia cells. Briefly: Cell viability by MTT assay, Jurkat. The assay is classed as cell-based. The procedure: (§2) For viability testing, OPM2 and Jurkat cells (4×10^4) were treated with the indicated agents in Opti-MEM media at 37° C. in a final volume of 100 μL. Cell viability was measured at 24 hours by MTT assay, for which cells were incubated with 20 μL thiazolyl blue tetrazolium bromide (5 mg/mL in DPBS) at 37° C. for 4 hours, the precipitate solubilized with 0.1 N HCl isopropanol (100 μL), and absorbance measured at 570 nm and 650 nm.
Background: Tetrazolium assays rely on reduction of a dye to a coloured formazan, in cell work by metabolically active cells.

Assay [3] deals with OPM2 multiple myeloma cells. Briefly: Cell viability by MTT assay, OPM2. The following applies: MTT at 24 hours. It is filed as cell-based. The procedure: as §2, with “OPM2 multiple myeloma cells and Jurkat T-cell leukemia were passaged and maintained in RPMI 1640 medium (Invitrogen) supplemented with 10% fetal bovine serum, 100 U/mL penicillin, 100 μg/mL streptomycin, 2 mM L-glutamine, 50 mM HEPES and 50 μM β-mercaptoethanol. For” for “For”

Regarding `CC[C@H](C)[C@@H]1NC(=O)[C@@](C)(NC(=O)[C@H](C)NC(=O)[C@H](CC(C)C)NC(=O)[C@H](CCC(N)=O)NC(=O)[C@H](CCCNC(=N)N)NC(=O)CNC(=O)[C@@H](NC(=O)[C@@H](N)CCC(N)=O)C(C)C)CCCC=CCCC[C@@](C)(C(=O)N[C@H](C(=O)N[C@@H](CC(N)=O)C(=O)N[C@@H](CCCNC(=N)N)C(=O)N[C@@H](CCCNC(=N)N)C(=O)N[C@@H](Cc2ccc(O)cc2)C(=O)N[C@@H](CC(=O)O)C(N)=O)[C@@H](C)CC)NC(=O)[C@H](CC(=O)O)NC(=O)CNC1=O` [BAK SAHB] (H-QVGRQLA[S5]IGD[S5]INRRYD-NH2; staple 8-12; C-terminus assumed), the “binding selectivity among anti-apoptotic proteins” value in assay [1] was “high affinity pan-anti-apoptotic binders”. Also, the “BCL-XL binding” value on recombinant BCL-XLΔC is “eliminated”. As for `CC[C@H](C)[C@@H]1NC(=O)[C@@](C)(NC(=O)[C@H](CCCCN)NC(=O)[C@H](CC(C)C)NC(=O)[C@H](CO)NC(=O)[C@H](CCC(=O)O)NC(=O)[C@H](CO)NC(=O)[C@H](CC(C)C)NC(=O)[C@H](CCCCN)NC(=O)[C@H](CCCCN)NC(=O)[C@@H](NC(=O)[C@H](CO)NC(=O)[C@H](C)N)[C@@H](C)O)CCCC=CCCC[C@@](C)(C(=O)N[C@@H](CC(C)C)C(=O)N[C@@H](CC(=O)O)C(=O)N[C@@H](CO)C(=O)N[C@@H](CC(N)=O)C(N)=O)NC(=O)[C@H](CC(=O)O)NC(=O)CNC1=O` [BAX SAHB] (H-ASTKKLSESLK[S5]IGD[S5]LDSN-NH2; staple 12-16; C-terminus assumed), the “BCL-XL binding” value on recombinant BCL-XLΔC is on record as “eliminated”. Turning to `CCCC[C@H](NC(=O)[C@]1(C)CCCC=CCCC[C@](C)(NC(=O)[C@H](C)NC(=O)[C@H](CC(C)C)NC(=O)[C@H](Cc2c[nH]cn2)NC(=O)[C@H](CCCNC(=N)N)NC(=O)[C@H](C)NC(=O)[C@@H](NC(=O)[C@H](CC(N)=O)NC(=O)[C@H](CCCNC(=N)N)NC(=O)[C@@H](NC(=O)[C@@H](NC(=O)[C@@H](N)CC(=O)O)[C@@H](C)CC)[C@@H](C)CC)[C@@H](C)CC)C(=O)N[C@@H](C(C)C)C(=O)NCC(=O)N[C@@H](CC(=O)O)C(=O)N1)C(=O)N[C@@H](CC(=O)O)C(=O)N[C@@H](CCCNC(=N)N)C(=O)N[C@@H](CO)C(=O)N[C@H](C(=O)N[C@@H](CCCNC(=N)N)C(=O)N[C@@H](CCCNC(=N)N)C(N)=O)[C@@H](C)CC` [BID SAHB] (H-DIIRNIARHLA[S5]VGD[S5][Nle]DRSIRR-NH2; staple 12-16; C-terminus assumed), the “BCL-XL binding” value at recombinant BCL-XLΔC was “eliminated”. With `CC[C@H](C)[C@H](N)C(=O)N[C@@H](Cc1c[nH]c2ccccc12)C(=O)N[C@H](C(=O)N[C@@H](C)C(=O)N[C@@H](CCC(N)=O)C(=O)N[C@@H](CCC(=O)O)C(=O)N[C@@H](CC(C)C)C(=O)N[C@@H](CCCNC(=N)N)C(=O)N[C@@]1(C)CCCC=CCCC[C@@](C)(C(=O)N[C@@H](Cc2ccccc2)C(=O)N[C@@H](CC(N)=O)C(=O)N[C@@H](C)C(=O)N[C@@H](Cc2ccc(O)cc2)C(=O)N[C@@H](Cc2ccc(O)cc2)C(=O)N[C@@H](C)C(=O)N[C@@H](CCCNC(=N)N)C(=O)N[C@@H](CCCNC(=N)N)C(N)=O)NC(=O)[C@H](CC(=O)O)NC(=O)CNC(=O)[C@H]([C@@H](C)CC)NC1=O)[C@@H](C)CC` [BIM SAHB], the “binding selectivity among anti-apoptotic proteins” value in assay [1] is “pan-anti-apoptotic binder”. Also, the “BCL-XL binding” value at recombinant BCL-XLΔC was “eliminated”. Regarding `CCCC[C@H](NC(=O)[C@H](CCC(=O)O)NC(=O)[C@H](CC(C)C)NC(=O)[C@]1(C)CCCC=CCCC[C@](C)(NC(=O)[C@H](CC(C)C)NC(=O)[C@H](CC(C)C)NC(=O)[C@@H](NC(=O)[C@H](C)NC(=O)[C@H](CO)NC(=O)[C@@H](NC(=O)[C@H](CCC(=O)O)NC(=O)[C@H](C)NC(=O)[C@H](CC(C)C)NC(=O)[C@@H](N)CCCNC(=N)N)C(C)C)C(C)C)C(=O)N[C@@H](CC(C)C)C(=O)NCC(=O)N[C@@H](CC(=O)O)C(=O)N1)C(=O)N[C@H](C(=O)N[C@@H](CCCNC(=N)N)C(N)=O)[C@@H](C)CC` [BOK SAHB] (H-RLAEVSAVLL[S5]LGD[S5]LE[Nle]IR-NH2; staple 11-15; C-terminus assumed), the “binding selectivity among anti-apoptotic proteins” value in assay [1] is listed as “significant preference for MCL-1 over the other anti-apoptotics”. Further, the “BCL-XL binding” value at recombinant BCL-XLΔC was “eliminated”. With `CCCC[C@@H]1NC(=O)[C@@](C)(NC(=O)[C@H](CCCNC(=N)N)NC(=O)[C@H](CC(C)C)NC(=O)[C@H](CCC(N)=O)NC(=O)[C@H](C)NC(=O)CNC(=O)[C@@H](NC(=O)[C@H](CCC(=O)O)NC(=O)[C@H](CCCNC(=N)N)NC(=O)[C@H](C)NC(=O)[C@H](Cc2c[nH]c3ccccc23)NC(=O)[C@@H](N)CCC(N)=O)[C@@H](C)CC)CCCC=CCCC[C@@](C)(C(=O)N[C@@H](CC(C)C)C(=O)N[C@@H](CC(N)=O)C(=O)N[C@@H](C)C(=O)N[C@@H](CCC(N)=O)C(=O)N[C@@H](Cc2ccc(O)cc2)C(N)=O)NC(=O)[C@H](CC(=O)O)NC(=O)[C@H](C)NC1=O` [PUMA SAHB] (H-QWAREIGAQLR[S5][Nle]AD[S5]LNAQY-NH2; staple 12-16; C-terminus assumed), the “BCL-XL binding” value at recombinant BCL-XLΔC is “eliminated”.

Regarding `CC(NC(=O)C(NC(=O)OCc1ccccc1)C(C)C)C(=O)NC(CC(=O)O)C(=O)CF` (stereo not drawn) [z-VAD, reference compound] (Cbz-Val-Ala-Asp-CH2F; configuration not given here), the “effect of pan-caspase inhibitor on MCL-1 SAHBD-induced sensitization” value in assay [2] (z-VAD 50 μM with MCL-1 SAHBD plus TRAIL/FasL, Jurkat and OPM2 cells) is given as “completely abrogated the negative effects on cell viability”. Turning to LEVESXTQLXRFGDKLNFRQKL [NOXA SAHBB], the “sensitization of Jurkat cells to FasL” value in assay [2] (combined with low dose FasL, MTT at 24 hours) is “behaved identically to MCL-1 SAHBD; also recorded: sensitized the apoptotic response of Jurkat cells to TRAIL and FasL”. Further, the “sensitization of Jurkat cells to TRAIL” value in assay [2] (combined with low dose TRAIL, MTT at 24 hours) was “behaved identically to MCL-1 SAHBD; also recorded: sensitized the apoptotic response of Jurkat cells to TRAIL and FasL”. For the same molecule, the “binding selectivity among anti-apoptotic proteins” value in assay [1] is “binds MCL-1ΔNΔC exclusively; also recorded: potent and exclusive MCL-1ΔNΔC binding activity”.

B1: FasL: death receptor agonist, extrinsic pathway activator (protein, UniProt P48023 130-281, looked up)
Tumor necrosis factor ligand …: QIGHPSPPPEKKELRKVAHLTGKSNSRSMPLEWEDTYGIVLLSGVKYKKGGLVINETGLYFVYSKVYFRGQSCNNLPLSHKVYMRNSKYPQDLVMMEGKMMSYCTTGQMWARSSYLGAVFNLTSADHLYVNVSELSLVNFEESQTFFGLYKL
Turning to B1, the “OPM2 cell viability, single agent” value in assay [3] is listed as “sensitive to TRAIL but not FasL; also recorded: only Jurkat cells were sensitive to FasL”. Besides, in assay [2] (MTT at 24 hours), the “Jurkat cell viability, single agent” value is on record as “dose-responsive cytotoxicity; also recorded: only Jurkat cells were sensitive to FasL”.

B2: TRAIL: death receptor agonist, extrinsic pathway activator (protein, UniProt P50591 1-281, looked up)
Tumor necrosis factor ligand …: MAMMEVQGGPSLGQTCVLIVIFTVLLQSLCVAVTYVYFTNELKQMQDKYSKSGIACFLKEDDSYWDPNDEESMNSPCWQVKWQLRQLVRKMILRTSEETISTVQEKQQNISPLVRERGPQRVAAHITGTRGRSNTLSSPNSKNEKALGRKINSWESSRSGHSFLSNLHLRNGELVIHEKGFYYIYSQTYFRFQEEIKENTKNDKQMVQYIYKYTSYPDPILLMKSARNSCWSKDAEYGLYSIYQGGIFELKENDRIFVSVTNEHLIDMDHEASFFGAFLVG
Turning to B2, the “OPM2 cell viability, single agent” value in assay [3] is reported as “sensitive to TRAIL; also recorded: induced apoptosis”. Further, in assay [2] (MTT at 24 hours), the “Jurkat cell viability, single agent” value is “dose-responsive cytotoxicity; also recorded: induced apoptosis”.
